From patent US8841277B2, “Methods for treating non-small cell lung cancer using 5-azacytidine” (Celgene Corporation, priority 2009, dated 2014)

System: NSCLC cells
Experiment: Western analysis of DNA damage and cell death markers, summary
Format: cell-based
Settings: H460, A549, H1299 studies
Description: These studies also examined apoptosis using an assay for PARP cleavage. Cells studied included H460, A549, and H1299 cells.
For western analyses of protein levels, cells were washed with PBS and lysed with RIPA buffer (Cell Signaling Technology, Inc.; Danvers, Mass.) containing 350 mM NaCl and 0.1% SDS. Cell lysates were sonicated with two 5-second bursts under low amplitude (20%) using the Digital Sonic Dismembrator (Thermo Fisher Scientific, Inc.; Waltham, Mass.). Proteins were separated on 4-12% Bis-Tris NuPAGE gels (Life Technologies Corporation) and transferred to nitrocellulose membranes. DNMT1, phos-Histone-H2AX(Ser139), total Histone-H2AX, cleaved-PARP, p21, p53, and alpha-tubulin were detected using the Li-Cor Odyssey imaging system (Li-Cor Biotechnology; Lincoln, Nebr.), following incubation with the appropriate primary and secondary antibodies. The phos-Histone-H2AX(Ser139), cleaved-PARP, and p21 antibodies were from Cell Signaling Technology, Inc. The p53 and total Histone-H2AX (C-20) antibodies were from Santa Cruz Biotechnology, Inc. (Santa Cruz, Calif.). The alpha-tubulin and DNMT1 antibodies were purchased from EMD Chemicals, Inc. (Gibbstown, N.J.) and Abcam, Inc. (Cambridge, Mass.), respectively. The goat anti-Rabbit IRDye 680, goat anti-Mouse IRDye 800CW, and donkey anti-Goat IRDye 800CW secondary antibodies were from Li-Cor Biotechnology.

Structure (SMILES): Nc1ncn([C@@H]2O[C@H](CO)[C@@H](O)[C@H]2O)c(=O)n1 [AZA, 4-amino-1-β-D-ribofuranosyl-1,3,5-triazin-2(1H)-one]
- Induction of DNA damage and cell death markers, concentration comparison: at lower concentrations than DAC
